Legend:
Type in all cases: in vivo
[1] = test system: Bemisia tabaci; assay: Bemisia tabaci (cotton white fly) feeding/contact activity, cotton leaf discs; conditions: foliar, 144 h, application rate 200 ppm, adult white flies, 6 days after incubation
Protocol: Example B1: Bemisia tabaci (Cotton White Fly): Feeding/Contact Activity
Cotton leaf discs were placed on agar in 24-well microtiter plates and sprayed with aqueous test solutions prepared from 10′000 ppm DMSO stock solutions. After drying the leaf discs were infested with adult white flies. The samples were checked for mortality 6 days after incubation.

[2] = test system: Diabrotica Balteata; assay: Diabrotica balteata (corn root worm), maize sprouts, L2 larvae; conditions: 96 h, application rate 200 ppm, 4 days after infestation, read-out: effect in at least one of the two categories (mortality or growth inhibition)
Protocol: Example B2: Diabrotica Balteata (Corn Root Worm)
Maize sprouts placed onto an agar layer in 24-well microtiter plates were treated with aqueous test solutions prepared from 10′000 ppm DMSO stock solutions by spraying. After drying, the plates were infested with L2 larvae (6 to 10 per well). The samples were assessed for mortality and growth inhibition in comparison to untreated samples 4 days after infestation.

[3] = test system: Euschistus heros; assay: Euschistus heros (neotropical brown stink bug), soybean leaves, N2 nymphs; conditions: 120 h, application rate 200 ppm, 5 days after infestation, read-out: effect in at least one of the two categories (mortality or growth inhibition)
Protocol: Example B3: Euschistus heros (Neotropical Brown Stink Bug)
Soybean leaves on agar in 24-well microtiter plates were sprayed with aqueous test solutions prepared from 10′000 ppm DMSO stock solutions. After drying the leaves were infested with N2 nymphs. The samples were assessed for mortality and growth inhibition in comparison to untreated samples 5 days after infestation.

[4] = test system: Frankliniella occidentalis; assay: Frankliniella occidentalis (western flower thrips) feeding/contact activity, sunflower leaf discs; conditions: foliar, 168 h, application rate 200 ppm, population of mixed ages, 7 days after infestation
Protocol: Example B4: Frankliniella occidentalis (Western Flower Thrips): Feeding/Contact Activity
(§1) Sunflower leaf discs were placed on agar in 24-well microtiter plates and sprayed with aqueous test solutions prepared from 10′000 DMSO stock solutions. After drying the leaf discs were infested with a Frankliniella population of mixed ages. The samples were assessed for mortality 7 days after infestation.

[5] = test system: Myzus persicae; assay: Myzus persicae (green peach aphid) feeding/contact activity, sunflower leaf discs; conditions: foliar, 144 h, application rate 200 ppm, 6 days after infestation
Protocol: Example B5: Myzus persicae (Green Peach Aphid): Feeding/Contact Activity
Sunflower leaf discs were placed onto agar in a 24-well microtiter plate and sprayed with aqueous test solutions prepared from 10′000 ppm DMSO stock solutions. After drying, the leaf discs were infested with an aphid population of mixed ages. The samples were assessed for mortality 6 days after infestation.

[6] = test system: Myzus persicae; assay: Myzus persicae (green peach aphid) systemic activity, pea seedling roots; conditions: 144 h, test rate 24 ppm, 6 days after placing seedlings into test solutions
[7] = test system: Plutella xylostella; assay: Plutella xylostella (diamond back moth), artificial diet, L2 larvae; conditions: 120 h, application rate 200 ppm, 5 days after infestation, read-out: effect in at least one of the two categories (mortality or growth inhibition)
Protocol: Example B7: Plutella xylostella (Diamond Back Moth)
24-well microtiter plates with artificial diet were treated with aqueous test solutions prepared from 10′000 ppm DMSO stock solutions by pipetting. After drying, the plates were infested with L2 larvae (10 to 15 per well). The samples were assessed for mortality and growth inhibition in comparison to untreated samples 5 days after infestation.

[8] = test system: Spodoptera littoralis; assay: Spodoptera littoralis (Egyptian cotton leaf worm), cotton leaf discs, L1 larvae; conditions: foliar, 72 h, application rate 200 ppm, L1 larvae on cotton leaf discs, 3 days after infestation
Protocol: Example B8: Spodoptera littoralis (Egyptian Cotton Leaf Worm)
Cotton leaf discs were placed onto agar in 24-well microtiter plates and sprayed with aqueous test solutions prepared from 10′000 ppm DMSO stock solutions. After drying the leaf discs were infested with five L1 larvae. The samples were assessed for mortality, anti-feeding effect, and growth inhibition in comparison to untreated samples 3 days after infestation. Control of Spodoptera littoralis by a test sample is given when at least one of the categories mortality, anti-feedant effect, and growth inhibition is higher than the untreated sample.

[9] = test system: Spodoptera littoralis; assay: Spodoptera littoralis (Egyptian cotton leaf worm), uptake by lettuce roots from agar, eggs; conditions: 144 h, test rate 12.5 ppm, lettuce root uptake, 6 days after infestation, read-out: effect in at least one of the three categories (mortality, anti-feeding, or growth inhibition)
Description: Example B9: Spodoptera littoralis (Egyptian Cotton Leaf Worm)
Test compounds were applied by pipette from 10′000 ppm DMSO stock solutions into 24-well plates and mixed with agar. Lettuce seeds were placed onto the agar and the multi well plate was closed by another plate which contained also agar. After 7 days the compound was absorbed by the roots and the lettuce grew into the lid plate. The lettuce leaves were then cut off into the lid plate. Spodoptera eggs were pipetted through a plastic stencil onto a humid gel blotting paper and the lid plate was closed with it. The samples were assessed for mortality, anti-feedant effect and growth inhibition in comparison to untreated samples 6 days after infestation.

[10] = test system: Tetranychus urticae; assay: Tetranychus urticae (two-spotted spider mite) feeding/contact activity, bean leaf discs; conditions: foliar, 192 h, application rate 200 ppm, mixed population (mobile stages), 8 days after infestation
Protocol: Example B10: Tetranychus urticae (Two-Spotted Spider Mite): Feeding/Contact Activity
Bean leaf discs on agar in 24-well microtiter plates were sprayed with aqueous test solutions prepared from 10′000 ppm DMSO stock solutions. After drying the leaf discs were infested with a mite population of mixed ages. The samples were assessed for mortality on mixed population (mobile stages) 8 days after infestation.

[11] = test system: Thrips tabaci; assay: Thrips tabaci (onion thrips) feeding/contact activity, sunflower leaf discs; conditions: foliar, 144 h, application rate 200 ppm, population of mixed ages, 6 days after infestation
Protocol: Example B11: Thrips tabaci (Onion Thrips) Feeding/Contact Activity
as §1, with “10′000 ppm” for “10′000”, “thrips” for “Frankliniella”, “6” for “7”

[12] = test system: Aedes aegypti; assay: Aedes aegypti (yellow fever mosquito), dry deposit in 12 well plates, adult females; conditions: application rate 200 ppm in ethanol, after 48 h and/or 24 h
Protocol: Example B12: Aedes aegypti (Yellow Fever Mosquito)
(§2) Test solutions, at an application rate of 200 ppm in ethanol, were applied to 12 well tissue culture plates. Once the deposits were dry, five, two to five day old adult female Aedes aegypti were added to each well, and sustained with a 10% sucrose solution in a cotton wool plug. Assessment of knockdown was made one hour after introduction, and mortality was assessed at 24 and 48 hours after introduction.

[13] = test system: Anopheles stephensi; assay: Anopheles stephensi (Indian malaria mosquito), dry deposit in 12 well plates, adult females; conditions: application rate 200 ppm in ethanol, after 48 h and/or 24 h
Protocol: Example B13: Anopheles stephensi (Indian Malaria Mosquito)
as §2, with “Anopheles stephensi” for “Aedes aegypti”

CCS(=O)(=O)c1cc(C(F)(F)F)cnc1-c1nc2cc(S(=O)(=O)C(F)(F)F)ncc2n1C [Compound P8, 2-[3-ethylsulfonyl-5-(trifluoromethyl)-2-pyridyl]-3-methyl-6-(trifluoromethylsulfonyl) imidazo[4,5-c]pyridine]
≥ 80%: mortality at 200 ppm [1] | percent effect (mortality or growth inhibition) at 200 ppm [2] | percent effect (mortality or growth inhibition) at 200 ppm [3] | mortality at 200 ppm [4] | mortality at 200 ppm [5] | mortality at 24 ppm [6] | percent effect (mortality or growth inhibition) at 200 ppm [7] | percent control (mortality, anti-feedant effect or growth inhibition) at 200 ppm [8] | percent effect (mortality, anti-feeding or growth inhibition) at 12.5 ppm [9] | mortality at 200 ppm [10] | mortality at 200 ppm [11] | pest or weed control at 200 ppm [12] | pest or weed control at 200 ppm [13]

CCS(=O)(=O)c1cc(C(F)(F)F)cnc1-c1nc2cc(SC(F)(F)F)ncc2n1C [Compound P10, 2-[3-ethylsulfonyl-5-(trifluoromethyl)-2-pyridyl]-3-methyl-6-(trifluoromethylsulfanyl)imidazo[4,5-c]pyridine]
≥ 80%: mortality at 200 ppm [1] | percent effect (mortality or growth inhibition) at 200 ppm [2] | percent effect (mortality or growth inhibition) at 200 ppm [3] | mortality at 200 ppm [4] | mortality at 200 ppm [5] | mortality at 24 ppm [6] | percent effect (mortality or growth inhibition) at 200 ppm [7] | percent control (mortality, anti-feedant effect or growth inhibition) at 200 ppm [8] | percent effect (mortality, anti-feeding or growth inhibition) at 12.5 ppm [9] | mortality at 200 ppm [11] | pest or weed control at 200 ppm [12] | pest or weed control at 200 ppm [13]

— patent US10385048B2, “Pesticidally active polycyclic derivatives with sulfur containing substituents” (Syngenta Participations AG, priority 2014, dated 2019)
